# Data from the supplement of paper PMC10307832.
# Assays:
# Assay in all cases: relative viability (nuclei count vs DMSO), 5 days (fraction); higher = more cells survive
# [1] = compound: C1CNCCC1C2=CC(=NN2)C3=CC=NC=C3
# Method in brief: (§1)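 Hoechst staining, done together with fixation and permeabilisation, marked nuclei for 4× imaging and MetaXpress counting. This followed 5 days without medium change after lung cancer cell lines, kept overnight at 37 °C in 1536-well plates, were pinned with five library-drug doses (not always all listed) spaced by √10 on vehicle-anchored plates. Viability is the ratio of treated-well to vehicle-well nuclei, expressed as a median across plates. Plates passed only at control CV below 25% with at least one doubling.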
# [2] = compound: C[C@@H](N)c1ccc(C(=O)Nc2ccnc3[nH]ccc23)cc1
# Method in brief: as §1
# Tanzisertib = compound: O[C@H]1CC[C@H](Nc2ncc3nc(Nc4c(F)cc(F)cc4F)n([C@H]4CCOC4)c3n2)CC1 [Tanzisertib]
# Method in brief: as §1
# [3] = compound: C1CNCCC1C2=CC(=NN2)C3=CC=NC=C3 + COc1cc2c(Oc3ccc(NC(=O)C4(C(=O)Nc5ccc(F)cc5)CC4)cc3F)ccnc2cc1OCCCN1CCOCC1 [Foretinib] (partner 0.25 µM)
# Method in brief: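 Lung cancer cell lines in 1536-well plates were dosed by pin tool the day after seeding, either with one drug alone or with a fixed anchor-drug dose plus five library-drug doses (not always all listed) in √10 steps. After 5 days, cells were fixed and their nuclei stained in one step (final 0.05% Triton X-100, 1% formaldehyde, 1 ug/ml Hoechst), then counted on 4× images. Relative viability is the nuclei count in treated wells divided by that in vehicle wells. Values are medians of duplicate plates.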
Cell Line,relative viability ([1]; 0.08 µM),relative viability ([1]; 0.8 µM),relative viability ([1]; 2.53 µM),relative viability ([1]; 8 µM),relative viability ([2]; 0.04 µM),relative viability ([2]; 0.1265 µM),relative viability ([2]; 0.4 µM),relative viability ([2]; 1.265 µM),relative viability ([2]; 4 µM),relative viability (Tanzisertib; 0.08 µM),relative viability (Tanzisertib; 0.253 µM),relative viability (Tanzisertib; 0.8 µM),relative viability (Tanzisertib; 2.53 µM),relative viability (Tanzisertib; 8 µM),relative viability ([3]; first compound 0.08 µM),relative viability ([3]; first compound 0.8 µM),relative viability ([3]; first compound 2.53 µM),relative viability ([3]; first compound 8 µM)
LCLC-97TM1,1.05,0.884,1.33,0.947,1.18,0.868,1.16,0.843,0.983,1.03,0.997,1.03,0.941,0.59,0.946,0.888,0.938,0.904
NCI-H2170,0.834,0.978,0.939,0.984,1.1,0.992,1,0.926,0.936,1.11,0.96,0.992,0.977,0.887,0.897,0.974,1,1.01
NCI-H1793,0.835,0.702,0.923,0.878,0.973,0.952,1.08,–,1.11,1.07,0.857,0.998,0.758,0.522,0.619,0.659,0.72,0.654
NCI-H3122,0.978,1.03,1.02,0.988,0.997,1.04,0.975,1,0.894,1.02,0.964,1.03,1,0.936,1.01,0.935,0.942,1.01
PC-14,1.01,1.06,1.13,0.987,0.906,0.979,0.995,0.707,0.779,1.06,1.07,0.996,0.984,0.546,0.942,1.03,1.01,0.942
EPLC-272H,0.902,0.94,0.929,0.98,0.9,0.973,1.11,0.356,0.791,1.14,0.95,1.09,0.908,0.761,0.647,0.674,0.678,0.706
A-427,0.953,1.05,0.984,1.05,0.862,1.07,0.975,–,0.906,0.997,0.998,1.07,1.08,0.789,1.11,1.21,1.13,1.04
